The results in this text go back to patent publication US20040234531A1, “Chimeric human leukocyte antigen and epitope-bearing molecules having immunosuppressant activity” (priority 2001, published 2004).

Assay [1] relates to lymph node cells from GAD65-immunized HLA-DR4 transgenic mice. The assay is described as follows: Proliferation and cytokines of lymph node cells from HLA-DR4 transgenic mice immunized with p271-285 GAD65 peptide. The assay is classed as cell-based, mouse. On the procedure: (§1) FIG. 9A-C. Potency of human DEF molecules in activating murine specific T cells. (A) Lymph node cells (3×10^5) from HLA-DR4 transgenic mice immunized with p271-285 GAD65 peptide were cultured for five dats in the presence of spleen cells (2×10^5) from naive HLA-DR4 mice and 5, 10 or 15 μg/ml of GAD65 peptide or 0.05, 0.5 or 1 μg/ml of DEF-GAD65. (B) Using the same protocol as for (A), cells from mice immunized withp73-90 proinsulin peptide wee stimulated with the same doses of proinsulin peptide or DEF-Pi. […] The proliferative responses are expressed as Δcpm=specific cpm−background cpm.
(§2) HLA-DR*0401 +/+, Abb −/− mice ([…], Taconic, Germantown, N.Y.) expressthe α1β1 domains of HLA-DR*0401 linked to the α2β2 domains of I-E^d, and at the same time are deficient for endogenous MHC class II (1-A^b, I-E^b) molecules (Abb −/−).
(§3) Groups of five mice were immunized in the footpads with either 100 micrograms of p271-285 GAD65 peptide or p73-90 proinsulin peptide in Complete Freund's Adjuvant (“CFA”). Lymph nodes were harvested ten days later and cells from GAD65-immunized mice were stimulated in vitro with various doses of p271-285 synthetic peptide, DEF-GAD65 or empty DEF molecules. […] The amount of peptide carried by the human DEF molecules was normalized on a molar basis, and the immunopotency determined as described in Casares et al., 1999, 3. […]

In assay [2] the test system is lymph node cells from proinsulin-immunized HLA-DR4 transgenic mice. The assay is described as follows: Proliferation and cytokines of lymph node cells from HLA-DR4 transgenic mice immunized with p73-90 proinsulin peptide. In kind it is cell-based, mouse. On the procedure: as §1, §2, §3

Take “GAD65 peptide PRLIAFTSEHSHFSL (SEQ ID NO:10) (listed as Homo sapiens) [p271-285]”: the EC50 in assay [1] (cells from GAD65-immunized mice, read-out: Half-maximal proliferation of stimulated cells) was found to be 1000 nM. Further, the “cytokine production in culture supernatants” value in assay [1] (day 5, ELISA) is reported as “also secreted IL-10”.

“proinsulin peptide GAGSLQPLALEGSLQKRG (SEQ ID NO: 43) (listed as Homo sapiens) [p73-90]”: the EC50 in assay [2] (cells from proinsulin-immunized mice, read-out: Half-maximal proliferation of stimulated cells) turned out to be 2500 nM. Besides, the “cytokine production in culture supernatants” value in assay [2] (day 5, ELISA) is given as “secreted IL-2 but not IL-10”.
